assay: Determination of solubility in deionized water (HPLC, external standard); conditions: 25 °C, water, thermodynamic from solid

| Compound | solubility at 30 min [mg/mL] |
| --- | --- |
| CC[C@@H]([C@H](C)O)n1ncn(-c2ccc(N3CCN(c4ccc(OC[C@@H]5CO[C@@](Cn6c[n+](C(C)OC(=O)SC[C@H](N)C(=O)O)cn6)(c6ccc(F)cc6F)C5)cc4)CC3)cc2)c1=O (stereo partly drawn) [ST0030] | 21.8 |
| CC[C@@H]([C@H](C)OC(=O)OCCOCCOCCOP(=O)([O-])[O-])n1ncn(-c2ccc(N3CCN(c4ccc(OC[C@@H]5CO[C@@](Cn6cncn6)(c6ccc(F)cc6F)C5)cc4)CC3)cc2)c1=O.[Na+].[Na+] [ST0061] | > 50 |
| CC[C@@H]([C@H](C)OC(=O)OCCOP(=O)([O-])[O-])n1ncn(-c2ccc(N3CCN(c4ccc(OC[C@@H]5CO[C@@](Cn6cncn6)(c6ccc(F)cc6F)C5)cc4)CC3)cc2)c1=O.[Na+].[Na+] [ST0059] | > 50 |
| CC[C@@H]([C@H](C)OC(=O)OC(C)OC(=O)CCCCCCOS(=O)(=O)[O-])n1ncn(-c2ccc(N3CCN(c4ccc(OC[C@@H]5CO[C@@](Cn6cncn6)(c6ccc(F)cc6F)C5)cc4)CC3)cc2)c1=O.[Na+] (stereo partly drawn) [ST0081] | > 50 |
| CC[C@@H](C(C)OC(=O)OC(C)OC(=O)CNS(=O)(=O)[O-])n1ncn(-c2ccc(N3CCN(c4ccc(OC[C@@H]5CO[C@@](Cn6cncn6)(c6ccc(F)cc6F)C5)cc4)CC3)cc2)c1=O.[Na+] (stereo partly drawn) [ST0057] | > 50 |
| CC[C@@H](C(C)OC(=O)OC(C)OC(=O)CCOS(=O)(=O)[O-])n1ncn(-c2ccc(N3CCN(c4ccc(OC[C@@H]5CO[C@@](Cn6cncn6)(c6ccc(F)cc6F)C5)cc4)CC3)cc2)c1=O.[Na+] (stereo partly drawn) [ST0076] | > 50 |
| CC[C@@H](C(C)OC(=O)OC(C)OC(=O)CCCCCCCOP(=O)([O-])[O-])n1ncn(-c2ccc(N3CCN(c4ccc(OC[C@@H]5CO[C@@](Cn6cncn6)(c6ccc(F)cc6F)C5)cc4)CC3)cc2)c1=O.[Na+].[Na+] (stereo partly drawn) [ST0069] | 43.7 |
| CC[C@@H]([C@H](C)OC(=O)OC(C)OC(=O)COP(=O)([O-])[O-])n1ncn(-c2ccc(N3CCN(c4ccc(OC[C@@H]5CO[C@@](Cn6cncn6)(c6ccc(F)cc6F)C5)cc4)CC3)cc2)c1=O.[Na+].[Na+] (stereo partly drawn) [ST0065] | > 50 |
| CC[C@@H](C(C)OC(=O)OC(C)OC(=O)CN(C)S(=O)(=O)[O-])n1ncn(-c2ccc(N3CCN(c4ccc(OC[C@@H]5CO[C@@](Cn6cncn6)(c6ccc(F)cc6F)C5)cc4)CC3)cc2)c1=O.[Na+] (stereo partly drawn) [ST0056] | > 50 |
| CC[C@@H]([C@H](C)OC(=O)OC(C)OC(=O)C(O)COP(=O)([O-])[O-])n1ncn(-c2ccc(N3CCN(c4ccc(OC[C@@H]5CO[C@@](Cn6cncn6)(c6ccc(F)cc6F)C5)cc4)CC3)cc2)c1=O.[Na+].[Na+] (stereo partly drawn) [ST0089] | 25.2 |
| CC[C@@H]([C@H](C)O)n1ncn(-c2ccc(N3CCN(c4ccc(OC[C@@H]5CO[C@@](Cn6c[n+](C(C)OC(=O)OCCOP(=O)(O)O)cn6)(c6ccc(F)cc6F)C5)cc4)CC3)cc2)c1=O (stereo partly drawn) [ST0042] | > 50 |
| CC[C@@H]([C@H](C)OC(=O)OC(C)OC(=O)CCCOP(=O)([O-])[O-])n1ncn(-c2ccc(N3CCN(c4ccc(OC[C@@H]5CO[C@@](Cn6cncn6)(c6ccc(F)cc6F)C5)cc4)CC3)cc2)c1=O.[Na+].[Na+] (stereo partly drawn) [ST0062] | > 50 |
| CC[C@@H]([C@H](C)O)n1ncn(-c2ccc(N3CCN(c4ccc(OC[C@@H]5CO[C@@](Cn6c[n+](C(C)OC(=O)NC7O[C@H](CO)[C@H](O)[C@H]7OC(=O)CNC)cn6)(c6ccc(F)cc6F)C5)cc4)CC3)cc2)c1=O (stereo partly drawn) [ST0028] | 35.7 |
| CC[C@@H]([C@H](C)O)n1ncn(-c2ccc(N3CCN(c4ccc(OC[C@@H]5CO[C@@](Cn6c[n+](C(C)OC(=O)N(C)c7ncccc7COC(=O)[C@@H](N)CCNC)cn6)(c6ccc(F)cc6F)C5)cc4)CC3)cc2)c1=O (stereo partly drawn) [ST0040] | > 50 |
| CC[C@@H]([C@H](C)O)n1ncn(-c2ccc(N3CCN(c4ccc(OC[C@@H]5CO[C@@](Cn6c[n+](C(C)OC(=O)N(C)c7ncccc7CN)cn6)(c6ccc(F)cc6F)C5)cc4)CC3)cc2)c1=O (stereo partly drawn) [ST0032] | 30.5 |
| CC[C@@H]([C@H](C)O)n1ncn(-c2ccc(N3CCN(c4ccc(OC[C@@H]5CO[C@@](Cn6c[n+](C(C)OC(=O)N(C)c7ncccc7CNC)cn6)(c6ccc(F)cc6F)C5)cc4)CC3)cc2)c1=O (stereo partly drawn) [ST0037] | > 50 |
| CC[C@@H](C(C)OC(=O)OC(C)OC(=O)CCCCCCCCOP(=O)([O-])[O-])n1ncn(-c2ccc(N3CCN(c4ccc(OC[C@@H]5CO[C@@](Cn6cncn6)(c6ccc(F)cc6F)C5)cc4)CC3)cc2)c1=O.[Na+].[Na+] (stereo partly drawn) [ST0071] | 23.4 |
| CC[C@@H]([C@H](C)O)n1ncn(-c2ccc(N3CCN(c4ccc(OC[C@@H]5CO[C@@](Cn6c[n+](C(C)OC(=O)N(C)c7ncccc7COC(=O)[C@@H](N)CCCNC)cn6)(c6ccc(F)cc6F)C5)cc4)CC3)cc2)c1=O (stereo partly drawn) [ST0038] | > 50 |
| CC[C@@H]([C@H](C)OS(=O)(=O)[O-])n1ncn(-c2ccc(N3CCN(c4ccc(OC[C@@H]5CO[C@@](Cn6cncn6)(c6ccc(F)cc6F)C5)cc4)CC3)cc2)c1=O.[Na+] [ST0095] | > 50 |
| CC[C@@H](C(C)OC(=O)OC(C)OC(=O)CCCCOP(=O)([O-])[O-])n1ncn(-c2ccc(N3CCN(c4ccc(OC[C@@H]5CO[C@@](Cn6cncn6)(c6ccc(F)cc6F)C5)cc4)CC3)cc2)c1=O.[Na+].[Na+] (stereo partly drawn) [ST0068] | > 50 |
| CC[C@@H](C(C)OC(=O)OC(C)OC(=O)COS(=O)(=O)[O-])n1ncn(-c2ccc(N3CCN(c4ccc(OC[C@@H]5CO[C@@](Cn6cncn6)(c6ccc(F)cc6F)C5)cc4)CC3)cc2)c1=O.[Na+] (stereo partly drawn) [ST0075] | > 50 |

same assay, conditions: 25±2° C., after 30 min

| Compound | Solubility [mg/mL] |
| --- | --- |
| CC[C@@H]([C@H](C)OC(=O)OC(C)OC(=O)CN(C)P(=O)([O-])[O-])n1ncn(-c2ccc(N3CCN(c4ccc(OC[C@@H]5CO[C@@](Cn6cncn6)(c6ccc(F)cc6F)C5)cc4)CC3)cc2)c1=O.[Na+].[Na+] (stereo partly drawn) [ST0054] | 40.9 |
| CC[C@@H]([C@H](C)OC(=O)OC(C)OC(=O)CNP(=O)([O-])[O-])n1ncn(-c2ccc(N3CCN(c4ccc(OC[C@@H]5CO[C@@](Cn6cncn6)(c6ccc(F)cc6F)C5)cc4)CC3)cc2)c1=O.[Na+].[Na+] (stereo partly drawn) [ST0055] | 35.4 |
| CC[C@@H]([C@H](C)OC(=O)OCCOCCOP(=O)([O-])[O-])n1ncn(-c2ccc(N3CCN(c4ccc(OC[C@@H]5CO[C@@](Cn6cncn6)(c6ccc(F)cc6F)C5)cc4)CC3)cc2)c1=O.[Na+].[Na+] [ST0060] | >50 |

assay: Solid stability test (stability chamber, HPLC total impurity); format: physicochemical; conditions: not given

| Compound | Total impurity increment in 30 days [%] |
| --- | --- |
| CC[C@@H]([C@H](C)O)n1ncn(-c2ccc(N3CCN(c4ccc(OC[C@@H]5CO[C@@](Cn6c[n+](C(C)OC(=O)NC7O[C@H](CO)[C@H](O)[C@H]7OC(=O)CNC)cn6)(c6ccc(F)cc6F)C5)cc4)CC3)cc2)c1=O (stereo partly drawn) [ST0028] | 1.62 |
| CC[C@@H]([C@H](C)O)n1ncn(-c2ccc(N3CCN(c4ccc(OC[C@@H]5CO[C@@](Cn6c[n+](C(C)OC(=O)N(C)c7ncccc7COC(=O)[C@@H](N)CCCNC)cn6)(c6ccc(F)cc6F)C5)cc4)CC3)cc2)c1=O (stereo partly drawn) [ST0038] | 1.06 |

same assay, conditions: solid, packaged, 25° C.±2° C., relative humidity 60%±2%

| Compound | Total impurity increment in 30 days [%] |
| --- | --- |
| CC[C@@H](C(C)OC(=O)OC(C)OC(=O)CNS(=O)(=O)[O-])n1ncn(-c2ccc(N3CCN(c4ccc(OC[C@@H]5CO[C@@](Cn6cncn6)(c6ccc(F)cc6F)C5)cc4)CC3)cc2)c1=O.[Na+] (stereo partly drawn) [ST0057] | 1.96 |
| CC[C@@H]([C@H](C)OC(=O)OC(C)OC(=O)CC(=O)[O-])n1ncn(-c2ccc(N3CCN(c4ccc(OC[C@@H]5CO[C@@](Cn6cncn6)(c6ccc(F)cc6F)C5)cc4)CC3)cc2)c1=O.[Na+] (stereo partly drawn) [ST0048] | 0.95 |
| CC[C@@H]([C@H](C)O)n1ncn(-c2ccc(N3CCN(c4ccc(OC[C@@H]5CO[C@@](Cn6c[n+](C(C)OC(=O)N(C)c7ncccc7COC(=O)[C@@H](N)CCC(N)=O)cn6)(c6ccc(F)cc6F)C5)cc4)CC3)cc2)c1=O (stereo partly drawn) [ST0102] | 0.36 |
| CC[C@@H]([C@H](C)O)n1ncn(-c2ccc(N3CCN(c4ccc(OC[C@@H]5CO[C@@](Cn6c[n+](C(C)OC(=O)N(C)c7ncccc7COC(=O)[C@@H](N)CC(N)=O)cn6)(c6ccc(F)cc6F)C5)cc4)CC3)cc2)c1=O (stereo partly drawn) [ST0103] | 0.29 |
| CC[C@@H]([C@H](C)O)n1ncn(-c2ccc(N3CCN(c4ccc(OC[C@@H]5CO[C@@](Cn6c[n+](C(C)OC(=O)OCCOP(=O)(O)O)cn6)(c6ccc(F)cc6F)C5)cc4)CC3)cc2)c1=O (stereo partly drawn) [ST0042] | 1.05 |
| CC[C@@H]([C@H](C)O)n1ncn(-c2ccc(N3CCN(c4ccc(OC[C@@H]5CO[C@@](Cn6c[n+](C(C)OC(=O)N(C)c7ncccc7COC(=O)[C@@H](N)CO)cn6)(c6ccc(F)cc6F)C5)cc4)CC3)cc2)c1=O (stereo partly drawn) [ST0105] | 0.34 |
| CC[C@@H]([C@H](C)O)n1ncn(-c2ccc(N3CCN(c4ccc(OC[C@@H]5CO[C@@](Cn6c[n+](C(C)OC(=O)N(C)c7ncccc7COC(=O)[C@@H](N)CCNC)cn6)(c6ccc(F)cc6F)C5)cc4)CC3)cc2)c1=O (stereo partly drawn) [ST0040] | 1.34 |
| CC[C@@H](C(C)OC(=O)OC(C)OC(=O)CN(C)C)n1ncn(-c2ccc(N3CCN(c4ccc(OC[C@@H]5CO[C@@](Cn6cncn6)(c6ccc(F)cc6F)C5)cc4)CC3)cc2)c1=O (stereo partly drawn) [Compound 0058] | 0.47 |
| CC[C@@H]([C@H](C)O)n1ncn(-c2ccc(N3CCN(c4ccc(OC[C@@H]5CO[C@@](Cn6c[n+](C(C)OC(=O)SCC(=O)[O-])cn6)(c6ccc(F)cc6F)C5)cc4)CC3)cc2)c1=O.[Cl-].[Na+] (stereo partly drawn) [ST0034] | 1.85 |
| CC[C@@H]([C@H](C)O)n1ncn(-c2ccc(N3CCN(c4ccc(OC[C@@H]5CO[C@@](Cn6c[n+](CC(=O)[O-])cn6)(c6ccc(F)cc6F)C5)cc4)CC3)cc2)c1=O.[Cl-].[Na+] [ST0021] | 0.97 |
| CC[C@@H]([C@H](C)O)n1ncn(-c2ccc(N3CCN(c4ccc(OC[C@@H]5CO[C@@](Cn6c[n+](C(C)OC(=O)N(C)c7ncccc7COC(=O)[C@@H](N)[C@@H](C)O)cn6)(c6ccc(F)cc6F)C5)cc4)CC3)cc2)c1=O (stereo partly drawn) [ST0106] | 0.32 |
| CC[C@@H]([C@H](C)O)n1ncn(-c2ccc(N3CCN(c4ccc(OC[C@@H]5CO[C@@](Cn6c[n+](C(C)OC(=O)N(C)c7ncccc7COC(=O)CN)cn6)(c6ccc(F)cc6F)C5)cc4)CC3)cc2)c1=O (stereo partly drawn) [ST0101] | 0.47 |
| CC[C@@H]([C@H](C)O)n1ncn(-c2ccc(N3CCN(c4ccc(OC[C@@H]5CO[C@@](Cn6c[n+](C(C)OC(=O)OCCS)cn6)(c6ccc(F)cc6F)C5)cc4)CC3)cc2)c1=O (stereo partly drawn) [ST0036] | 0.87 |
| CC[C@@H]([C@H](C)O)n1ncn(-c2ccc(N3CCN(c4ccc(OC[C@@H]5CO[C@@](Cn6c[n+](C(C)OC(=O)N(C)c7ncccc7COC(=O)[C@@H](N)CCCCN)cn6)(c6ccc(F)cc6F)C5)cc4)CC3)cc2)c1=O (stereo partly drawn) [ST0104] | 0.27 |
| CC[C@@H]([C@H](C)OC(=O)OC(C)OC(=O)CNP(=O)([O-])[O-])n1ncn(-c2ccc(N3CCN(c4ccc(OC[C@@H]5CO[C@@](Cn6cncn6)(c6ccc(F)cc6F)C5)cc4)CC3)cc2)c1=O.[Na+].[Na+] (stereo partly drawn) [ST0055] | 0.85 |
| CC[C@@H]([C@H](C)OC(=O)OCCOCCOP(=O)([O-])[O-])n1ncn(-c2ccc(N3CCN(c4ccc(OC[C@@H]5CO[C@@](Cn6cncn6)(c6ccc(F)cc6F)C5)cc4)CC3)cc2)c1=O.[Na+].[Na+] [ST0060] | 0.83 |

— US10517867B2, “Posaconazole derivative, pharmaceutical composition and use thereof” (priority 2016, dated 2019)
